Test results reported in patent US4200748A, “Pyrido[1',2':4,5][1,4]oxazino[2,3-b]quinoxalines and pyrrolo[1',2':4,5][1,4]oxazino[2,3-b]quinoxalines” (American Cyanamid Company, priority 1979, dated 1980).

System: brain receptors (3H-diazepam binding)
Test: Inhibition of the binding of 3H-diazepam to the brain receptors (rat frontal cortex P2-synaptosomal fraction)
Set-up: species or system male albino rats of the Wistar strain
Settings: 3H-diazepam 1.5 nM, pH 7.4, 20 minutes in ice; for % Inhibition of Diazepam Binding: test concentration not given; for IC50: inhibition of 3H-diazepam binding
Excerpt: A test used to measure anxiolytic activity comprises measurement of the ability of test compounds to inhibit the binding of ^3 H-diazepam to the brain receptors of warm-blooded animals. The test is described by R. F. Squires in Nature, 266, No. 21, page 732 (April 1977). The animals used were male albino rats of the Wistar strain, weighing 150-200 g. each from Royalhart Farms. Diazepam (methyl-^3 H) was obtained from New England Nuclear. The test compounds were solubilized in either dimethylformamide, acetic acid, ethanol or hydrochloric acid. The frontal cortex of rats was homogenized gently in 20 volumes of ice-cold 0.32 M. sucrose, centrifuged twice at 1000 g. for 10 minutes and then recentrifuged at 30,000 g. for 20 minutes to produce a crude P2 -synaptosomal fraction. The P2 -fraction was rehomogenised, twice the original volume, in hypotonic 50 mM. Tris.HCl (pH 7.4). The binding assay consisted of 300 .parallel.l. of the P2 -fraction suspension (0.350 mg.), 100 .parallel.l. of test drug and 100 μl. of ^3 H-diazepam (1.5 nM.), which was added to 1.5 ml. of 50 mM. Tris.HCl (pH 7.4). Non-specific binding controls and total binding controls received 100 μl. of diazepam (3 μm.) and 100 μl. of deionized water, respectively, in place of the test compound. Incubation for 20 minutes proceeded in ice and was terminated by filtration, under vacuum, through Whatman GF/C glass fiber filters. The filters were washed twice with 5 ml. of ice-cold 50 mM. Tris.HCl (pH 7.4) and placed in scintillation vials. After drying at 50°-60° C. for 30 minutes, 10 ml. of Beckman Ready-Solve HP was added and the radioactivity determined in a Beckman Scintillation Counter.

SMILES | % Inhibition of Diazepam Binding | IC50
O=[N+]([O-])c1cccc2nc3c(nc12)N1CCCCC1CO3 (stereo not shown) [1,2,3,4,4a,5-hexahydro-11-nitropyrido[1',2':4,5][1,4]oxazino[2,3-b]quinoxaline] | 72% | 210 nM
FC(F)(F)c1ccc2nc3c(nc2c1)OCC1CCCCN31 (stereo not shown) [1,2,3,4,4a,5-Hexahydro-9-trifluoromethylpyrido[1',2':4,5][1,4]oxazino[2,3-b]quinoxaline] | 90% | 352 nM
Nc1cccc2nc3c(nc12)N1CCCCC1CO3 (stereo not shown) [11-Amino-1,2,3,4,4a,5-hexahydropyrido[1',2':4,5][1,4]oxazino[2,3-b]quinoxaline] | 98% | 20 nM
Clc1ccc2nc3c(nc2c1)OCC1CCCCN31 (stereo not shown) [9-Chloro-1,2,3,4,4a,5-hexahydropyrido[1',2':4,5][1,4]oxazino[2,3-b]quinoxaline] | 97% | 14 nM
c1ccc2nc3c(nc2c1)OCC1CCCN31 (single isomer, unassigned) [2,3,3a,4-Tetrahydro-1H-pyrrolo[1',2':4,5][1,4]oxazino[2,3-b]quinoxaline] | 87% | 87 nM
CN(C)C=Nc1cccc2nc3c(nc12)N1CCCCC1CO3 (stereo not shown) [N'-(1,2,3,4,4a,5-hexahydropyrido[1',2':4,5][1,4]oxazino[2,3-b]quinoxalin-11-yl)-N,N-dimethylformamidine] | 96% | 55 nM
Nc1ccc2nc3c(nc2c1)OCC1CCCCN31 (stereo not shown) [9-Amino-1,2,3,4,4a,5-hexahydropyrido[1',2':4,5][1,4]oxazino[2,3-b]quinoxaline] | 93% | 39 nM
Clc1ccc2nc3c(nc2c1)N1CCCCC1CO3 (stereo not shown) [10-chloro-1,2,3,4,4a,5-hexahydropyrido[1',2':4,5][1,4]oxazino[2,3-b]quinoxaline] | 95% | 22 nM
